Laboratory results: ChEMBL document CHEMBL1136636, “Carbonic anhydrase inhibitors: inhibition of the tumor-associated isozyme IX with aromatic and heterocyclic sulfonamides” (Bioorg Med Chem Lett, 2003)

Assays:
[1] = molecular target: T1, Carbonic anhydrase 4 (Bos taurus, UniProt Q95323)
T1 sequence (Q95323 whole entry): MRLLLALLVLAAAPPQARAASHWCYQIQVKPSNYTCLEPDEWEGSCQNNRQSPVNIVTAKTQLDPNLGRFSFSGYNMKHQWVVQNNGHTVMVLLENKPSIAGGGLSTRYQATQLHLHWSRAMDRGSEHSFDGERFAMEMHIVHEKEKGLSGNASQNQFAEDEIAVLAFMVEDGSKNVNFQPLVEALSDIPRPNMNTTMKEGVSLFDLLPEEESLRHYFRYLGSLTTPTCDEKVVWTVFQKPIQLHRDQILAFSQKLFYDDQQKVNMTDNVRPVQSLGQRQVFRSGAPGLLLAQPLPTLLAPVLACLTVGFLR

[2] = molecular target: Carbonic anhydrase 9 (Homo sapiens, UniProt Q16790)
[3] = molecular target: Carbonic anhydrase 1 (Homo sapiens, UniProt P00915)
Sequence of Carbonic anhydrase 1 (P00915 whole entry): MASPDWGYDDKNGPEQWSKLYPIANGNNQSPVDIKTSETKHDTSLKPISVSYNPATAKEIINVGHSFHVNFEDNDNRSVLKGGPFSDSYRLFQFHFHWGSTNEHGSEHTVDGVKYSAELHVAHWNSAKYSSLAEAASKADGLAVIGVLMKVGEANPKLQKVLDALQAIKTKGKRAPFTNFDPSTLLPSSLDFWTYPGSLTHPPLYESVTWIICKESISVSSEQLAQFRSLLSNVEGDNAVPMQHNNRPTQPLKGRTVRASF

SMILES | Ki [1] | Ki [2] | Ki [3]
Nc1ccc(S(=O)(=O)NCc2ccc(S(N)(=O)=O)cc2)cc1 | 72 nM | – | –
NS(=O)(=O)c1cccc2cccnc12 | 415 nM | 32 nM | –
Nc1ccc(S(N)(=O)=O)cc1I | – | 285 nM | –
Nc1ccccc1S(N)(=O)=O | – | 33 nM | –
Nc1ccc(S(=O)(=O)Nc2ccccc2S(N)(=O)=O)cc1 | 144 nM | – | 185 nM
Cn1nc(S(N)(=O)=O)sc1=N | – | 30 nM | –
NS(=O)(=O)c1ccc(CCO)cc1 | – | 22 nM | –
Nc1cc(C(F)(F)F)c(S(N)(=O)=O)cc1S(N)(=O)=O [2,4-DISULFAMYLTRIFLUOROMETHYLANILINE] | 154 nM | – | –
Nc1ccc(S(N)(=O)=O)cc1F | – | 245 nM | –
NS(=O)(=O)c1ccc(C(=O)O)cc1 [CARZENIDE] | 86 nM | 26 nM | –
NS(=O)(=O)c1ccc(CO)cc1 | – | 21 nM | –
NS(=O)(=O)c1cccc2ccccc12 | 438 nM | 30 nM | 23000 nM
Nc1nccc(Nc2ccc(S(N)(=O)=O)cc2)n1 | – | 16 nM | –
Nc1ccc(S(N)(=O)=O)cc1Cl | – | 264 nM | –
Nc1ccc(S(=O)(=O)Nc2ccc(S(N)(=O)=O)cc2)cc1 | 129 nM | 34 nM | –
Nc1ccc(S(=O)(=O)NCCc2ccc(S(N)(=O)=O)cc2)cc1 | 72 nM | 24 nM | –
